Experimental data taken from patent US7234365B2, “Methods and systems for dissolution testing” (Symyx Technologies, Inc., priority 2003, dated 2007).

Experiments:
[1] = High throughput dissolution screening of Aspirin; assay type: physicochemical; conditions: 10 mg powdered Aspirin in 10 ml deionized water, shaker, UV detector, 37 second sampling frequency for 30 minutes, FIG. 7
Method: A 10 mg of powdered Aspirin standard from Aldrich was weighted into a 20 ml scintillation vial and put on a shaker at a robot platform. The shaker was then turned on and an automated dispensing unit with a 10 ml syringe dispensed 10 ml of deionized water into the 20 ml scintillation vial containing the 10 mg of Aspirin thereby initiating dissolution of the 10 mg of Aspirin into the 10 ml of deionized water to form, over time, a solution having an increasing concentration of aspirin.
Thereafter, an automated sampling unit aspirated approximately 300 μL of the solution (the sample itself never enters the syringe) through an in-line filter allowing a sampled aliquot of the filtered solution to enter a switching valve and fill a 20 μL sample loop connected to the ports of the switching valve. Once the 20 μL sample loop was filled with a portion of the aliquot, the switching valve was switched to a second position by automation, causing the sub-aliquot contained in the 20 μL sample loop to be discharged into an analytical unit. The analytical unit comprised a syringe pump and an UV detector, for determining concentration. At this point, the automated sampling unit returned the remainder portion of the filtered aliquot back through the filter and back into the solution contained in the scintillation vial. […]

[2] = addition of viscogens such as glycerol or Ficoll; cited from earlier work

| time to reach maximum dissolution [1] | Molecule | photo stability [2] |
| --- | --- | --- |
| less than 10 minutes | CC(=O)Oc1ccccc1C(=O)O [Aspirin] | – |
| – | Vitamin-B12 | increase in photo stability |
